Reference: PMC7520961, “Safety evaluation of the interchangeable use of robenacoxib in commercially-available tablets and solution for injection in cats” (BMC Veterinary Research, 2020)

How the values were obtained:
[1] = test system: cats; test: Clinical chemistry (target animal safety study); format: in vivo, cat; details: for Total Bilirubin (mean ± SD) / GGT (mean ± SD) / AST (mean ± SD) / Creatine Kinase (mean ± SD) / Creatinine (mean ± SD) / Albumin/Globulin Ratio (mean ± SD) / Globulin (mean ± SD) / Albumin (mean ± SD) / Potassium (mean ± SD) / Total Protein (mean ± SD) / Phosphorus (mean ± SD) / Calcium (mean ± SD) / Triglyceride (mean ± SD) / Urea Nitrogen (mean ± SD) / ALT (mean ± SD) / Alkaline Phosphatase (mean ± SD) / Glucose (mean ± SD) / Cholesterol (mean ± SD) / Chloride (mean ± SD) / Sodium (mean ± SD): post-treatment, average of days 13 and 37; for Total Bilirubin (mean ± SD): reference range 0 - 0.3; for GGT (mean ± SD): reference range 0 – 2; for GGT (mean ± SD) / Albumin/Globulin Ratio (mean ± SD): significant treatment x sex and treatment x time effects (p<0.1); for AST (mean ± SD): reference range 0 – 55; for AST (mean ± SD) / Triglyceride (mean ± SD): significant treatment x sex effect (p<0.1); for Creatine Kinase (mean ± SD): reference range 0 – 1213; for Creatinine (mean ± SD): reference range 0.5 - 1.3; for Albumin/Globulin Ratio (mean ± SD): reference range 0.9 - 1.5; for Globulin (mean ± SD): reference range 2.1 - 3.3; for Albumin (mean ± SD): reference range 2.9 - 3.7; for Potassium (mean ± SD): reference range 4.6 - 7.4, significant treatment x time effect (p<0.1); for Total Protein (mean ± SD): reference range 5.4 - 6.7; for Phosphorus (mean ± SD): reference range 6.2 - 9.7, significant (p<0.1); for Calcium (mean ± SD): reference range 9.6 - 11.5; for Triglyceride (mean ± SD): reference range 12 – 64; for Urea Nitrogen (mean ± SD): reference range 15 – 35; for ALT (mean ± SD): reference range 27 – 103; for Alkaline Phosphatase (mean ± SD): reference range 50 – 186; for Glucose (mean ± SD): reference range 55 - 159; for Cholesterol (mean ± SD): reference range 88 – 148; for Chloride (mean ± SD): reference range 112 – 123; for Sodium (mean ± SD): reference range 146 – 160
Description: The upper lip was everted and a Surgicutt incision device was used to create a small incision (approximately 1 mm in depth and 3.5 mm in length). Blood flow from the incision site was blotted using filter paper below the incision. The elapsed time from the triggering of the device until blood no longer appeared on the filter paper was recorded as the bleed time. […] Blood samples (3.0 mL) were collected from the jugular vein into tubes containing K3EDTA for evaluation of hematology parameters, sodium citrate for evaluation of coagulation parameters, and serum separators with no anticoagulant for the clinical chemistry samples. […] Coagulation variables were determined using a Stago Compact (Diagnostica Stago, Parsippany, NJ, US), clinical chemistry variables were determined using an Olympus AU2700 or AU640e (Olympus Diagnostics, Southall, UK), and urinalysis variables were determined using a […]-500 or Atlas (Siemens, Munich, Germany), Reichert VET 360 (Reichert Technologies, Buffalo, New York, USA), or light microscope. Post-treatment values were analyzed using […], with treatment group, sex, time, and their interactions as fixed model effects and the pre-treatment value measured closest to dosing as a covariate. Repeated measurements in the same animal were modeled using a compound symmetry or heterogeneous compound symmetry correlation structure (for food consumption: autoregressive first-order or heterogeneous autoregressive first-order); the model with the smallest Akaike's Information Criterion was selected for each outcome. If any of the interactions involving treatment was significant (p < 0.1 for the two-factor interactions or p < 0.05 for the three-factor interaction), it was inappropriate to evaluate the main or overall treatment effect independently of the interacting factor and, as such, treatment comparisons were conducted for each level of the interacting factor. If none of the interactions involving treatment were significant, overall treatment differences were assessed.

[2] = test system: cats; test: Buccal mucosal bleeding time (BMBT); format: in vivo; details: one 2X cat
Description: Buccal mucosal bleeding times (BMBT) were measured on all animals on Days − 5 and 36 following ECG examinations while the animals were sedated. The upper lip was everted and a Surgicutt incision device was used to create a small incision (approximately 1 mm in depth and 3.5 mm in length). Blood flow from the incision site was blotted using filter paper below the incision. The elapsed time from the triggering of the device until blood no longer appeared on the filter paper was recorded as the bleed time. Clinical pathology evaluations were conducted on all animals on Days − 13 and − 6 and prior to dosing on Days 13 and 37. Because reference values given by the laboratory were (slightly) different for males and females, they were combined (i.e. lower of the two lower bounds to higher of the two upper bounds) for the tables. […] Hematology variables were determined using an Advia 120 or Advia 2120 (Siemens, Munich, Germany), light microscope, or sediplast column (Polymedco, NY, US). Coagulation variables were determined using a Stago Compact (Diagnostica Stago, Parsippany, NJ, US), clinical chemistry variables were determined using an Olympus AU2700 or AU640e (Olympus Diagnostics, Southall, UK), and urinalysis variables were determined using a Clinitek-500 or Atlas (Siemens, Munich, Germany), Reichert VET 360 (Reichert Technologies, Buffalo, New York, USA), or light microscope.

[3] = test system: cats; details: in vivo
Description: Necropsies were performed in cage order. All animals were euthanized on Day 38 by intramuscular sedation with ketamine followed approximately 30 min later in a different room by an intravenous overdose of sodium pentobarbital solution and exsanguination, under procedures approved by a veterinary pathologist and according to the study site’s standard operating procedures. After a complete post-mortem evaluation, tissue samples were collected for histopathological analysis. Additionally, the following organs were weighed before tissues were collected: adrenal gland, aorta, brain, epididymis, heart, kidney, liver, lung with bronchi, ovary, pituitary, prostate, salivary gland (mandibular), spleen, testis, thymus, thyroid gland (with parathyroid), and uterus with cervix. In order to correct for body weight and size, the ratio of organ weight to body weight and brain weight was calculated for each animal. Tissues, including any gross lesions identified during the necropsy, were fixed in neutral buffered formalin, except the eye including optic nerve and testes were fixed using a modified Davidson’s fixative [36]. Tissue sections were stained with hematoxylin and eosin and evaluated by a board-certified veterinary pathologist. A bone marrow smear was collected from a rib at necropsy and analyzed qualitatively by a board-certified veterinary clinical pathologist.

[4] = test system: cats; details: in vivo; remark: listed apart in the source
[5] = parameters: method as in PMID 19161452, PMID 23438125; details: elimination in the cat; cited from earlier work
[6] = test system: healthy adult domestic short-hair cats; parameters: method as in ref 13 = [13]; 13. US Food and Drug Administration Freedom of Information Summary: Original New Animal Drug Application NADA 141–443 (Onsior Robenacoxib Injection Cats) 2015.; details: 10 mg/kg robenacoxib solution for injection for three consecutive days; cited from earlier work
[7] = 1X (oral ≥2.4, SC 2.0 mg/kg/day)
[8] = 2X (oral ≥4.8, SC 4.0 mg/kg/day)
[9] = 3X (oral ≥7.2, SC 6.0 mg/kg/day)

CCc1ccc(Nc2c(F)c(F)cc(F)c2F)c(CC(=O)O)c1 [robenacoxib]
Total Bilirubin (mean ± SD) [1, 7]: 0.18 ± 0.04 mg/dL | GGT (mean ± SD) [1, 7]: 1.14 ± 0.43 U/L | AST (mean ± SD) [1, 7]: 22.2 ± 8.6 U/L | Creatine Kinase (mean ± SD) [1, 7]: 1479 ± 1901 U/L | Creatinine (mean ± SD) [1, 7]: 0.86 ± 0.13 mg/dL | Albumin/Globulin Ratio (mean ± SD) [1, 7]: 1.29 ± 0.14 | Globulin (mean ± SD) [1, 7]: 2.62 ± 0.23 g/dL | Albumin (mean ± SD) [1, 7]: 3.31 ± 0.21 g/dL | Potassium (mean ± SD) [1, 7]: 5.40 ± 0.24 mEq/L | Total Protein (mean ± SD) [1, 7]: 5.93 ± 0.28 g/dL | Phosphorus (mean ± SD) [1, 7]: 8.86 ± 0.76 mg/dL | Calcium (mean ± SD) [1, 7]: 10.01 ± 0.31 mg/dL | Triglyceride (mean ± SD) [1, 7]: 40.1 ± 27.2 mg/dL | Urea Nitrogen (mean ± SD) [1, 7]: 25.3 ± 2.7 mg/dL | ALT (mean ± SD) [1, 7]: 54.6 ± 9.2 U/L | Alkaline Phosphatase (mean ± SD) [1, 7]: 105.6 ± 40.6 U/L | Glucose (mean ± SD) [1, 7]: 85.1 ± 7.1 mg/dL | Cholesterol (mean ± SD) [1, 7]: 105.0 ± 18.1 mg/dL | Chloride (mean ± SD) [1, 7]: 116.63 ± 1.50 mEq/L | Sodium (mean ± SD) [1, 7]: 150.3 ± 1.3 mEq/L | Total Bilirubin (mean ± SD) [1, 8]: 0.19 ± 0.03 mg/dL | GGT (mean ± SD) [1, 8]: 1.33 ± 0.65 U/L | AST (mean ± SD) [1, 8]: 22.0 ± 4.1 U/L | Creatine Kinase (mean ± SD) [1, 8]: 975 ± 903 U/L | Creatinine (mean ± SD) [1, 8]: 0.85 ± 0.12 mg/dL | Albumin/Globulin Ratio (mean ± SD) [1, 8]: 1.36 ± 0.14 | Globulin (mean ± SD) [1, 8]: 2.57 ± 0.28 g/dL | Albumin (mean ± SD) [1, 8]: 3.46 ± 0.17 g/dL | Potassium (mean ± SD) [1, 8]: 5.33 ± 0.41 mEq/L | Total Protein (mean ± SD) [1, 8]: 6.03 ± 0.35 g/dL | Phosphorus (mean ± SD) [1, 8]: 8.18 ± 0.83 mg/dL | Calcium (mean ± SD) [1, 8]: 10.16 ± 0.26 mg/dL | Triglyceride (mean ± SD) [1, 8]: 32.4 ± 9.1 mg/dL | Urea Nitrogen (mean ± SD) [1, 8]: 24.8 ± 4.0 mg/dL | ALT (mean ± SD) [1, 8]: 56.6 ± 9.4 U/L | Alkaline Phosphatase (mean ± SD) [1, 8]: 94.5 ± 24.4 U/L | Glucose (mean ± SD) [1, 8]: 84.1 ± 9.0 mg/dL | Cholesterol (mean ± SD) [1, 8]: 103.9 ± 14.2 mg/dL | Chloride (mean ± SD) [1, 8]: 115.88 ± 1.71 mEq/L | Sodium (mean ± SD) [1, 8]: 150.5 ± 1.4 mEq/L | phosphorus relative to controls (pairwise comparison, pooled samples over all time points) ([1]; 2X group, not considered clinically relevant): decrease | Total Bilirubin (mean ± SD) [1, 9]: 0.19 ± 0.03 mg/dL | GGT (mean ± SD) [1, 9]: 0.94 ± 0.05 U/L | AST (mean ± SD) [1, 9]: 22.8 ± 6.8 U/L | Creatine Kinase (mean ± SD) [1, 9]: 1763 ± 2175 U/L | Creatinine (mean ± SD) [1, 9]: 0.79 ± 0.12 mg/dL | Albumin/Globulin Ratio (mean ± SD) [1, 9]: 1.32 ± 0.16 | Globulin (mean ± SD) [1, 9]: 2.66 ± 0.29 g/dL | Albumin (mean ± SD) [1, 9]: 3.44 ± 0.18 g/dL | Potassium (mean ± SD) [1, 9]: 5.50 ± 0.43 mEq/L | Total Protein (mean ± SD) [1, 9]: 6.10 ± 0.34 g/dL | Phosphorus (mean ± SD) [1, 9]: 8.66 ± 0.78 mg/dL | Calcium (mean ± SD) [1, 9]: 10.17 ± 0.26 mg/dL | Triglyceride (mean ± SD) [1, 9]: 37.7 ± 14.7 mg/dL | Urea Nitrogen (mean ± SD) [1, 9]: 25.2 ± 3.9 mg/dL | ALT (mean ± SD) [1, 9]: 55.3 ± 10.5 U/L | Alkaline Phosphatase (mean ± SD) [1, 9]: 90.0 ± 19.5 U/L | Glucose (mean ± SD) [1, 9]: 83.1 ± 6.2 mg/dL | Cholesterol (mean ± SD) [1, 9]: 112.6 ± 23.7 mg/dL | Chloride (mean ± SD) [1, 9]: 115.81 ± 1.97 mEq/L | Sodium (mean ± SD) [1, 9]: 150.6 ± 1.5 mEq/L | increase in BMBT value compared to pre-treatment value [2]: approximately seven-fold | Robenacoxib-related microscopic findings [3]: increased injection site subacute/chronic inflammation | absolute liver weight increase compared to control [3]: 14% | severity of injection site inflammation observations [3]: minimal | opthalmoscopic, physical and neurological examinations [4]: no treatment-related effects | half-life [5]: less than 2 hours | injection site observations [6]: transient, fluid-filled, painless enlargements at the injection sites that disappeared over a period of 72 hours | microscopic findings at injection sites [6]: minimal subcutaneous inflammatory cell infiltration
